Assay results from US5382578A, “Methods for treating convulsions and ischemia with substituted dibenzoxazepine compounds” (G. D. Searle & Co., priority 1993, dated 1995).
Entries after “also recorded” stand apart in the source; their conditions may differ. Structures can show the parent of a compound that is named as a salt. Where two headings read alike, the source gives them in different places.

What was measured:
[1] = target: T1, prostaglandin E2-induced contractions of segments of guinea pig ileum (Cavia porcellus, UniProt A0A286XHJ6); test: Prostaglandin (PGE) Antagonism Assay, guinea pig ileum; assay type: cell-based; parameters: key to PGE in guinea pig ileum, activity: Active: the initial concentration used yielded at least a two-fold shift (dose ratio greater than or equal to 2) in the dose response curve for prostaglandin E2
T1 construct: Segments of ileum about 2 cm long were then cut and mounted in a 10-mL tissue bath; from tissue; host or cells: guinea pig ileum segments
T1 sequence (A0A286XHJ6 1-405): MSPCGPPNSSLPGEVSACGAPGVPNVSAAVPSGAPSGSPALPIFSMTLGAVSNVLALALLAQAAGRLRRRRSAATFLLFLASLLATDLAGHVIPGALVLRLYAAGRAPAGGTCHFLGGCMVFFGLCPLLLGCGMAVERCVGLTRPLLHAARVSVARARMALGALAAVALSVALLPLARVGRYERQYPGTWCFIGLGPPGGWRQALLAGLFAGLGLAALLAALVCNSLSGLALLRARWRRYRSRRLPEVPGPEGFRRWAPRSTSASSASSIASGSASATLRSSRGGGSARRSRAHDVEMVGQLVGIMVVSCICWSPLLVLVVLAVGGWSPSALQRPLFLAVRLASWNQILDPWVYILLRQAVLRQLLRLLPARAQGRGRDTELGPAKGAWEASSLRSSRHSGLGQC
Protocol: In order to determine the effectiveness of several of the compounds of the present invention ("test compounds") as prostaglandin E2 antagonists,a prostaglandin antagonism assay was conducted, as described below, to determine the ability of these compounds to inhibit prostaglandin E2 -induced contractions of segments of guinea pig ileum.
Male albino guinea pigs weighing 200 to 500 grams were sacrificed by cervical dislocation. The ilea were then quickly removed from the guinea pigs and placed in a modified Tyrode solution, a solution which is known to those skilled in the art, containing one-half of the usual amount of magnesium ions.
Segments of ileum about 2 cm long were then cut and mounted in a 10-mL tissue bath containing the modified Tyrode solution. The solution was maintained at 37° C. and aerated with a gaseous mixture of 95% oxygen and 5% carbon dioxide. Data for a control prostaglandin E2 dose response curve plotting concentration of prostaglandin E2 versus the intensity of contractions, detected isotonically, was then obtained by experimentally adjusting the dose of the prostaglandin E2 being injected into the tissue bath, in a manner known by those of skill in the art.
solutions or suspensions containing an initial concentration (3 micromolar) of a test compound in modified Tyrode solution ("test solutions/suspensions") were then separately substituted for the control bath solution. Each test solution/suspension was then kept in constant contact with the ileum tissue, except for brief periods to drain the bath in preparation for rinsing with fresh test solution/suspension. A second prostaglandin E2 dose response curve was then generated for prostaglandin E2 in the presence of a test compound.
A dose ratio of EC50 doses was then calculated from the results of each test in a manner known by those of skill in the art. A test compound was determined to be "active" if the initial concentration used yielded at least a two-fold shift (dose ratio greater than or equal to 2) in the dose response curve for prostaglandin E2.

[2] = test system: mouse injected with PBQ; test: Writhing Assay (PBQ-induced writhing in mice); assay type: in vivo, Charles River male albino mice; settings: for ED50: Mus musculus
Text: The Writhing Assay is one of the most widely-used experimental procedures for measuring the analgesic activity of different narcotic and nonnarcotic analgesic agents, and involves the continuous, chemically-induced pain of visceral origin to an animal, such as a mouse or rat. [Gyires et al., Arch., int. Pharmacodyn, 267, 131-140 (1984); C. Vander Wende et al., Fed. Proc., 15, 494 (1956); Koster et al., Fed. Proc., 18, 412 (1959); and Witken et al., J. Pharmacol. exp. Ther., 133, 400-408 (1961).] Chemicals which may be used to induce this pain include phenylbenzoquinone (PBQ) and acetic acid. As a result of the chemical irritation to the animal, a characteristic stretching and writhing of the animal (dorsiflexion of the animal's back, extension of its hindlimbs and the strong contraction of its abdominal musculature) will generally occur. […] Drugs which reduce the number of writhes of the animal appear to restore the normal nociceptive threshold of the animal.
Charles River male albino mice, weighing 20 to 30 grams, were used in this assay.
Thirty minutes after subcutaneous or intragastric administration to ten mice of 30 mg per kilogram of body weight of a compound of the present invention ("test compound"), […] per 10 g of body weight of a 0,025% w/v solution of PBQ was injected intraperitoneally into each mouse. Ten mice which were given saline in place of a test compound of the invention were used as a control group.
Five minutes later, each mouse was individually placed into a glass beaker for observation, and the number of writhes occurring during the following ten-minute period was counted.
A test compound was considered to have produced analgesia in a mouse if, in accordance with the conditions set forth above, and under the test criteria employed for this assay, after the administration of 30 mg per kilogram of body weight of a compound of the present invention to the mouse, the number of writhes elicited by a mouse injected with PBQ was equal to, or less than, one-half the median number of writhes recorded for the saline-treated control group of mice that day, as described by Taber in "Predictive Value of Analgesic Assays in Mice and Rats," Advances in Biochemical Psychopharmacology, 8, 191 (1974).
The standard initial screening dose of a test compound employed in this assay was […] for both routes of administration. If this initial screening dose of the test compound produced analgesia in seven of ten mice, then the effect of additional doses of the test compound on the writhing response was evaluated, and then the ED50 dose was generally calculated. (The slopes of the dose-response curves for all test compounds analyzed were compared as described by Tallarida and Murray, Manual of Pharmacologic Calculations, Page 11 (Springer Verlag, New York, 1981)).

[3] = test system: stimulant actions of prostaglandins on isolated smooth muscle preparations; settings: literature; cited from earlier work
[4] = test system: urethane-anesthetized rats; settings: literature; cited from earlier work
[5] = estimated, assuming Schild slope -1.0, initial concentration 3 micromolar, read-out: PGE in guinea pig ileum, Estimated pA2 value (converted)
[6] = initial concentration 3 micromolar
[7] = Schild plot calculation, varying concentrations, read-out: PGE in guinea pig ileum (pA2) (converted)
[8] = po, intragastric, read-out: Writhing Assay ED50 Dose, I.G.
[9] = sc, subcutaneous, read-out: Writhing Assay ED50 Dose, S.C.

| SMILES | Kb [1, 5] | PGE in guinea pig ileum, activity [1, 6] | rank order of potency in the Writhing Assay [2] | Kb [1, 7] | other results |
| --- | --- | --- | --- | --- | --- |
| CN(C)CCSCCC(=O)NCC(=O)N1Cc2ccccc2Oc2ccc(Cl)cc21 [Example 6, N-[2-(8-chloro,10,11-dihydrodibenz[b,f][1,4]oxazepin-10-yl)-2-oxoethyl]-3-[[2-(dimethylamino)ethyl]thio]propanamide, monohydrochloride] | 1260 nM | Active |  |  |  |
| O=C(CCSCc1ccco1)CNC(=O)N1Cc2ccccc2Oc2ccc(Cl)cc21 [Example 9, 8-chloro-N-[4-[(2-furanylmethyl)thio]-2-oxobutyl]dibenz[b,f][1,4]oxazepin-10(11H]-carboxamide] |  | Active | Example 1>Example 2>Example 3>Example 9 | 63.1 nM |  |
| O=C(CCNCc1cccs1)NCC(=O)N1Cc2ccccc2Oc2ccc(Cl)cc21 [Example 7, N-[2-(8-chloro-10,11-dihydrodibenz[b,f][1,4]oxazepin-10-yl)-2-oxoethyl)-3-[(2-thienylmethyl)amino]propanamide, monohydrochloride] |  | Active |  | 316 nM |  |
| CCS(=O)(=O)CCC(=O)NCC(=O)N1Cc2ccccc2Oc2ccc(Cl)cc21 [Example 1, N-[2-(8-chloro-10,11-dihydrodibenz[b,f][1,4]oxazepin-10-yl)-2-oxoethyl]-3-(ethylsulfonyl) propanamide] | 2000 nM | Active | Example 1>Example 2>Example 3>Example 9; also recorded: the most potent compound of the invention tested in this assay |  | ED50 [2, 8]: 5.9 mg/kg; ED50 [2, 9]: 11.2 mg/kg |
| NCCC(=O)NCC(=O)N1Cc2ccccc2Oc2ccc(Cl)cc21 [Example 5, 3-Amino-N-[2-(8-chloro-10,11-dihydrodibenz[b,f][1,4]oxazepin-10-yl)-2-oxoethyl]-propanamide, monohydrochloride] |  | Active |  |  | PGE in guinea pig ileum, Estimated pA2 value ([1]; estimated, assuming Schild slope -1.0, initial concentration 3 micromolar): 5.5 |
| O=C(Cc1ccccc1)NNC(=O)N1Cc2ccccc2Oc2ccc(Cl)cc21 [SC-18637] |  |  |  |  | effect on stimulant actions of prostaglandins on isolated smooth muscle preparations [3]: inhibit the stimulant actions of prostaglandins on isolated smooth muscle preparations |
| O=C(CCSCc1ccco1)NCC(=O)N1Cc2ccccc2Oc2ccc(Cl)cc21 [Example 2, N-[2-(8-chloro-10,11-dihydrodibenz[b,f][1,4]oxazepin-10-yl)-2-oxoethyl]-3[(2-furanylmethyl)thio]propanamide] |  | Active | Example 1>Example 2>Example 3>Example 9 | 10 nM | ED50 [2, 8]: 13.5 mg/kg; ED50 [2, 9]: 14.8 mg/kg |
| CCS(=O)(=O)CCC(=O)CNC(=O)N1Cc2ccccc2Oc2ccc(Cl)cc21 [Example 8, 8-chloro-N-[4-(ethylsulfonyl)-2-oxobutyl]dibenz[b,f][1,4]oxazepin-10(11H)-carboxamide] | 2510 nM | Active |  |  |  |
| O=C(CCSCc1cccs1)NCC(=O)N1Cc2ccccc2Oc2ccc(Cl)cc21 [Example 4, N-[2-(8-chlorodibenz-10-11-dihydrobenz[b,f][1,4]oxazepin-10-yl)-2-oxoethyl]-3-[(2-thenylmethyl)thio]propanamide] |  | Active |  | 12.6 nM |  |
| O=C(CCc1ccncc1)NCC(=O)N1Cc2ccccc2Oc2ccc(Cl)cc21 [Example 3, N-[2-{8-chloro-10,11-dihydrodibenz[b,f][1,4]oxazepin-10-yl)-2-oxoethyl]-4-pyridinepropanamide, monohydrochloride] | 2000 nM | Active | Example 1>Example 2>Example 3>Example 9 |  | ED50 [2, 9]: 16.9 mg/kg |
| CC(=O)NNC(=O)N1Cc2ccccc2Oc2ccc(Cl)cc21 [SC-19220] |  |  |  |  | effect on stimulant actions of prostaglandins on isolated smooth muscle preparations [3]: inhibit the stimulant actions of prostaglandins on isolated smooth muscle preparations; effect on bladder capacity [4]: increased the bladder capacity; effect on voiding efficiency of micturition [4]: reduced the voiding efficiency of micturition |
